Data on ten molecules can be found in ChEMBL document CHEMBL5465560, “Selectivity Literature for EUbOPEN Chemogenomic Library” (2024).

Assay [1] concerns the target Casein kinase I isoform epsilon (Homo sapiens, UniProt P49674). Put plainly: Selectivity interaction (Kinase panel (Z-LYTE Assay)) EUB0001632a CSNK1E. As to conditions: at 10 µM.
Assay [2] has as its target Histone-lysine N-methyltransferase 2C (Homo sapiens) (UniProt Q8NEZ4). Put plainly: Selectivity interaction (Methyltransferase screen (Scintillation proximity assays)) EUB0000255b MLL3. (Scintillation proximity formats need no separation of bound from free tracer.)
Assay [3] deals with T1, Serine/threonine-protein kinase DCLK3 (Homo sapiens) (UniProt Q9C098).
T1 sequence (whole entry): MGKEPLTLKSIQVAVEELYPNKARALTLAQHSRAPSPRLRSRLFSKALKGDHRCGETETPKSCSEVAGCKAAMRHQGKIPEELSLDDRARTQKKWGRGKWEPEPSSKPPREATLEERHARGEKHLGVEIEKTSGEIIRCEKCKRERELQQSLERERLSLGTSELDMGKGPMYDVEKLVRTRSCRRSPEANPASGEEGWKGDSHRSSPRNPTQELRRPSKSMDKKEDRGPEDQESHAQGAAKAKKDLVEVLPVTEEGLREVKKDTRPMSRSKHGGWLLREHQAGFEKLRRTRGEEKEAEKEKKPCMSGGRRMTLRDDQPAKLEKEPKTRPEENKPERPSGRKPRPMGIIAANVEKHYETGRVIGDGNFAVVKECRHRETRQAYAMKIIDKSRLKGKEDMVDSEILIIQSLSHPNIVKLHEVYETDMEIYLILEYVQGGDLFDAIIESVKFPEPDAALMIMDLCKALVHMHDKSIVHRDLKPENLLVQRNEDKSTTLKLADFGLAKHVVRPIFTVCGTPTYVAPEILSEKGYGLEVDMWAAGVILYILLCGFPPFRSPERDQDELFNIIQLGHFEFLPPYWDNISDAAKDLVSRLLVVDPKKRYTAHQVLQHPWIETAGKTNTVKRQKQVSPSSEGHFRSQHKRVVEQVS
Put plainly: Selectivity interaction (KinomeScan (DiscoverX)) EUB0001619a DCLK3. Particulars: at 1 µM.

The target in assay [4] is MAP kinase-activated protein kinase 2 (Homo sapiens, UniProt P49137). Put plainly: Selectivity interaction (KinomeScan (DiscoverX)) EUB0001619a MAPKAPK2. As to conditions: at 1 µM.
The target in assay [5] is Tyrosine-protein kinase Fer (Homo sapiens) (UniProt P16591). Put plainly: Selectivity interaction (SelectScreen profiling (Invitrogen)) EUB0000607a FER. As to conditions: at 2 µM.
A further assay concerns the target SRSF protein kinase 1 (Homo sapiens, UniProt Q96SB4). Put plainly: Selectivity interaction (SelectScreen profiling (Invitrogen)) EUB0000607a SRPK1. As to conditions: at 2 µM.
The target in assay [6] is T2, Cytoplasmic tyrosine-protein kinase BMX (Homo sapiens) (UniProt P51813).
T2 sequence (whole entry): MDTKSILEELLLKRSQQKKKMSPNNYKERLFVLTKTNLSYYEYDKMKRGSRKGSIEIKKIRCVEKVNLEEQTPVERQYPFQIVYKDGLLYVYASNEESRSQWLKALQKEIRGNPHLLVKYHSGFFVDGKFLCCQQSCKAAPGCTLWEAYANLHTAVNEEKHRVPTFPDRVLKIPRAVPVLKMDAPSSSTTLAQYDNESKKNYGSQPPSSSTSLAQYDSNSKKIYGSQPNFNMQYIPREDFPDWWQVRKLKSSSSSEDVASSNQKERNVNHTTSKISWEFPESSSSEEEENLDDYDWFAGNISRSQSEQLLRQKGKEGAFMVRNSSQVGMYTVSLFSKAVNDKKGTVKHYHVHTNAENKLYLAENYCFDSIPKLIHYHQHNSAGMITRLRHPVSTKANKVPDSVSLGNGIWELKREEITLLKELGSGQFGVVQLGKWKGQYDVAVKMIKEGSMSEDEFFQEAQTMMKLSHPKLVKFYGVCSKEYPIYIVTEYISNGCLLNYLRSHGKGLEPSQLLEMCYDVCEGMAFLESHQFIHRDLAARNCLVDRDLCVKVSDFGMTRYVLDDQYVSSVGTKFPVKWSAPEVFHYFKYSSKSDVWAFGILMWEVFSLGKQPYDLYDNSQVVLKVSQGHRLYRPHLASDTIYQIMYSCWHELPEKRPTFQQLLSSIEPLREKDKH
Put plainly: Selectivity interaction (Kinase screening (Nanosyn)) EUB0000604a BMX.

Assay [7] addresses T3, Protein arginine N-methyltransferase 9 (Homo sapiens) (UniProt Q6P2P2).
T3 sequence (whole entry): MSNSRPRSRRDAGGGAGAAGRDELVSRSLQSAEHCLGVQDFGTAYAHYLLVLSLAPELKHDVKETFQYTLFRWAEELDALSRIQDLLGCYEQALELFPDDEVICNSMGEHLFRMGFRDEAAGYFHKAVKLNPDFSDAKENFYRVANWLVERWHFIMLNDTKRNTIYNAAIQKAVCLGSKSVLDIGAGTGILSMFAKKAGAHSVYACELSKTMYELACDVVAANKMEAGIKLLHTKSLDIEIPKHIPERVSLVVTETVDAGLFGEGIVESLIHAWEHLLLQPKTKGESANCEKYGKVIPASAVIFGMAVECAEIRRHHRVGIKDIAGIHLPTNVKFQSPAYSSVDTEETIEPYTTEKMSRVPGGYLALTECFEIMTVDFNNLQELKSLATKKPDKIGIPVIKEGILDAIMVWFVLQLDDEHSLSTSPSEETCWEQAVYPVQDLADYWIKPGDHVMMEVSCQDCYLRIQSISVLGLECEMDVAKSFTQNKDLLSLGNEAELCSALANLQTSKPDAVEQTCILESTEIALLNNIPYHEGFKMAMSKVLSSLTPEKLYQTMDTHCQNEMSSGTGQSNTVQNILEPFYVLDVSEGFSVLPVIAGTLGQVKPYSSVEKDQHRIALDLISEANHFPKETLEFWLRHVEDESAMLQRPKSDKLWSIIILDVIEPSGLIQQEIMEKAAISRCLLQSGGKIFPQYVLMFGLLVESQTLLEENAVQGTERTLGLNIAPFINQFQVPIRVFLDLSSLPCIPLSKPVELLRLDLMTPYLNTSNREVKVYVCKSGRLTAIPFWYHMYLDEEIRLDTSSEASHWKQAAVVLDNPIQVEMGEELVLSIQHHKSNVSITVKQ
Particulars: at 10 µM.

Assay [8] concerns the target Protein-tyrosine kinase 2-beta (Homo sapiens) (UniProt Q14289). Put plainly: Selectivity interaction (Ambit KINOMEscan and KiNATiv profiling in Jurkat cells) EUB0000090b PTK2B. Particulars: at 1 µM. The assay is classed as cell-based.
Assay [9] deals with Serine/threonine-protein kinase PAK 3 (Homo sapiens) (UniProt O75914). Put plainly: Selectivity interaction (KinomeScan (DiscoverX)) EUB0001049a PAK3. As to conditions: at 1 µM.
Assay [10] addresses Epithelial discoidin domain-containing receptor 1 (Homo sapiens) (UniProt Q08345). Put plainly: Selectivity interaction (KinomeScan (DiscoverX)) EUB0000092b DDR1. As to conditions: at 10 µM.
In assay [11] the target is Dual specificity mitogen-activated protein kinase kinase 2 (Homo sapiens) (UniProt P36507). Put plainly: Selectivity interaction (KinomeScan (DiscoverX)) EUB0000229b MAP2K2. Particulars: at 10 µM.

The structures appear in SMILES notation.

Sequence of Histone-lysine N-methyltransferase 2C (Homo sapiens) (Q8NEZ4 whole entry): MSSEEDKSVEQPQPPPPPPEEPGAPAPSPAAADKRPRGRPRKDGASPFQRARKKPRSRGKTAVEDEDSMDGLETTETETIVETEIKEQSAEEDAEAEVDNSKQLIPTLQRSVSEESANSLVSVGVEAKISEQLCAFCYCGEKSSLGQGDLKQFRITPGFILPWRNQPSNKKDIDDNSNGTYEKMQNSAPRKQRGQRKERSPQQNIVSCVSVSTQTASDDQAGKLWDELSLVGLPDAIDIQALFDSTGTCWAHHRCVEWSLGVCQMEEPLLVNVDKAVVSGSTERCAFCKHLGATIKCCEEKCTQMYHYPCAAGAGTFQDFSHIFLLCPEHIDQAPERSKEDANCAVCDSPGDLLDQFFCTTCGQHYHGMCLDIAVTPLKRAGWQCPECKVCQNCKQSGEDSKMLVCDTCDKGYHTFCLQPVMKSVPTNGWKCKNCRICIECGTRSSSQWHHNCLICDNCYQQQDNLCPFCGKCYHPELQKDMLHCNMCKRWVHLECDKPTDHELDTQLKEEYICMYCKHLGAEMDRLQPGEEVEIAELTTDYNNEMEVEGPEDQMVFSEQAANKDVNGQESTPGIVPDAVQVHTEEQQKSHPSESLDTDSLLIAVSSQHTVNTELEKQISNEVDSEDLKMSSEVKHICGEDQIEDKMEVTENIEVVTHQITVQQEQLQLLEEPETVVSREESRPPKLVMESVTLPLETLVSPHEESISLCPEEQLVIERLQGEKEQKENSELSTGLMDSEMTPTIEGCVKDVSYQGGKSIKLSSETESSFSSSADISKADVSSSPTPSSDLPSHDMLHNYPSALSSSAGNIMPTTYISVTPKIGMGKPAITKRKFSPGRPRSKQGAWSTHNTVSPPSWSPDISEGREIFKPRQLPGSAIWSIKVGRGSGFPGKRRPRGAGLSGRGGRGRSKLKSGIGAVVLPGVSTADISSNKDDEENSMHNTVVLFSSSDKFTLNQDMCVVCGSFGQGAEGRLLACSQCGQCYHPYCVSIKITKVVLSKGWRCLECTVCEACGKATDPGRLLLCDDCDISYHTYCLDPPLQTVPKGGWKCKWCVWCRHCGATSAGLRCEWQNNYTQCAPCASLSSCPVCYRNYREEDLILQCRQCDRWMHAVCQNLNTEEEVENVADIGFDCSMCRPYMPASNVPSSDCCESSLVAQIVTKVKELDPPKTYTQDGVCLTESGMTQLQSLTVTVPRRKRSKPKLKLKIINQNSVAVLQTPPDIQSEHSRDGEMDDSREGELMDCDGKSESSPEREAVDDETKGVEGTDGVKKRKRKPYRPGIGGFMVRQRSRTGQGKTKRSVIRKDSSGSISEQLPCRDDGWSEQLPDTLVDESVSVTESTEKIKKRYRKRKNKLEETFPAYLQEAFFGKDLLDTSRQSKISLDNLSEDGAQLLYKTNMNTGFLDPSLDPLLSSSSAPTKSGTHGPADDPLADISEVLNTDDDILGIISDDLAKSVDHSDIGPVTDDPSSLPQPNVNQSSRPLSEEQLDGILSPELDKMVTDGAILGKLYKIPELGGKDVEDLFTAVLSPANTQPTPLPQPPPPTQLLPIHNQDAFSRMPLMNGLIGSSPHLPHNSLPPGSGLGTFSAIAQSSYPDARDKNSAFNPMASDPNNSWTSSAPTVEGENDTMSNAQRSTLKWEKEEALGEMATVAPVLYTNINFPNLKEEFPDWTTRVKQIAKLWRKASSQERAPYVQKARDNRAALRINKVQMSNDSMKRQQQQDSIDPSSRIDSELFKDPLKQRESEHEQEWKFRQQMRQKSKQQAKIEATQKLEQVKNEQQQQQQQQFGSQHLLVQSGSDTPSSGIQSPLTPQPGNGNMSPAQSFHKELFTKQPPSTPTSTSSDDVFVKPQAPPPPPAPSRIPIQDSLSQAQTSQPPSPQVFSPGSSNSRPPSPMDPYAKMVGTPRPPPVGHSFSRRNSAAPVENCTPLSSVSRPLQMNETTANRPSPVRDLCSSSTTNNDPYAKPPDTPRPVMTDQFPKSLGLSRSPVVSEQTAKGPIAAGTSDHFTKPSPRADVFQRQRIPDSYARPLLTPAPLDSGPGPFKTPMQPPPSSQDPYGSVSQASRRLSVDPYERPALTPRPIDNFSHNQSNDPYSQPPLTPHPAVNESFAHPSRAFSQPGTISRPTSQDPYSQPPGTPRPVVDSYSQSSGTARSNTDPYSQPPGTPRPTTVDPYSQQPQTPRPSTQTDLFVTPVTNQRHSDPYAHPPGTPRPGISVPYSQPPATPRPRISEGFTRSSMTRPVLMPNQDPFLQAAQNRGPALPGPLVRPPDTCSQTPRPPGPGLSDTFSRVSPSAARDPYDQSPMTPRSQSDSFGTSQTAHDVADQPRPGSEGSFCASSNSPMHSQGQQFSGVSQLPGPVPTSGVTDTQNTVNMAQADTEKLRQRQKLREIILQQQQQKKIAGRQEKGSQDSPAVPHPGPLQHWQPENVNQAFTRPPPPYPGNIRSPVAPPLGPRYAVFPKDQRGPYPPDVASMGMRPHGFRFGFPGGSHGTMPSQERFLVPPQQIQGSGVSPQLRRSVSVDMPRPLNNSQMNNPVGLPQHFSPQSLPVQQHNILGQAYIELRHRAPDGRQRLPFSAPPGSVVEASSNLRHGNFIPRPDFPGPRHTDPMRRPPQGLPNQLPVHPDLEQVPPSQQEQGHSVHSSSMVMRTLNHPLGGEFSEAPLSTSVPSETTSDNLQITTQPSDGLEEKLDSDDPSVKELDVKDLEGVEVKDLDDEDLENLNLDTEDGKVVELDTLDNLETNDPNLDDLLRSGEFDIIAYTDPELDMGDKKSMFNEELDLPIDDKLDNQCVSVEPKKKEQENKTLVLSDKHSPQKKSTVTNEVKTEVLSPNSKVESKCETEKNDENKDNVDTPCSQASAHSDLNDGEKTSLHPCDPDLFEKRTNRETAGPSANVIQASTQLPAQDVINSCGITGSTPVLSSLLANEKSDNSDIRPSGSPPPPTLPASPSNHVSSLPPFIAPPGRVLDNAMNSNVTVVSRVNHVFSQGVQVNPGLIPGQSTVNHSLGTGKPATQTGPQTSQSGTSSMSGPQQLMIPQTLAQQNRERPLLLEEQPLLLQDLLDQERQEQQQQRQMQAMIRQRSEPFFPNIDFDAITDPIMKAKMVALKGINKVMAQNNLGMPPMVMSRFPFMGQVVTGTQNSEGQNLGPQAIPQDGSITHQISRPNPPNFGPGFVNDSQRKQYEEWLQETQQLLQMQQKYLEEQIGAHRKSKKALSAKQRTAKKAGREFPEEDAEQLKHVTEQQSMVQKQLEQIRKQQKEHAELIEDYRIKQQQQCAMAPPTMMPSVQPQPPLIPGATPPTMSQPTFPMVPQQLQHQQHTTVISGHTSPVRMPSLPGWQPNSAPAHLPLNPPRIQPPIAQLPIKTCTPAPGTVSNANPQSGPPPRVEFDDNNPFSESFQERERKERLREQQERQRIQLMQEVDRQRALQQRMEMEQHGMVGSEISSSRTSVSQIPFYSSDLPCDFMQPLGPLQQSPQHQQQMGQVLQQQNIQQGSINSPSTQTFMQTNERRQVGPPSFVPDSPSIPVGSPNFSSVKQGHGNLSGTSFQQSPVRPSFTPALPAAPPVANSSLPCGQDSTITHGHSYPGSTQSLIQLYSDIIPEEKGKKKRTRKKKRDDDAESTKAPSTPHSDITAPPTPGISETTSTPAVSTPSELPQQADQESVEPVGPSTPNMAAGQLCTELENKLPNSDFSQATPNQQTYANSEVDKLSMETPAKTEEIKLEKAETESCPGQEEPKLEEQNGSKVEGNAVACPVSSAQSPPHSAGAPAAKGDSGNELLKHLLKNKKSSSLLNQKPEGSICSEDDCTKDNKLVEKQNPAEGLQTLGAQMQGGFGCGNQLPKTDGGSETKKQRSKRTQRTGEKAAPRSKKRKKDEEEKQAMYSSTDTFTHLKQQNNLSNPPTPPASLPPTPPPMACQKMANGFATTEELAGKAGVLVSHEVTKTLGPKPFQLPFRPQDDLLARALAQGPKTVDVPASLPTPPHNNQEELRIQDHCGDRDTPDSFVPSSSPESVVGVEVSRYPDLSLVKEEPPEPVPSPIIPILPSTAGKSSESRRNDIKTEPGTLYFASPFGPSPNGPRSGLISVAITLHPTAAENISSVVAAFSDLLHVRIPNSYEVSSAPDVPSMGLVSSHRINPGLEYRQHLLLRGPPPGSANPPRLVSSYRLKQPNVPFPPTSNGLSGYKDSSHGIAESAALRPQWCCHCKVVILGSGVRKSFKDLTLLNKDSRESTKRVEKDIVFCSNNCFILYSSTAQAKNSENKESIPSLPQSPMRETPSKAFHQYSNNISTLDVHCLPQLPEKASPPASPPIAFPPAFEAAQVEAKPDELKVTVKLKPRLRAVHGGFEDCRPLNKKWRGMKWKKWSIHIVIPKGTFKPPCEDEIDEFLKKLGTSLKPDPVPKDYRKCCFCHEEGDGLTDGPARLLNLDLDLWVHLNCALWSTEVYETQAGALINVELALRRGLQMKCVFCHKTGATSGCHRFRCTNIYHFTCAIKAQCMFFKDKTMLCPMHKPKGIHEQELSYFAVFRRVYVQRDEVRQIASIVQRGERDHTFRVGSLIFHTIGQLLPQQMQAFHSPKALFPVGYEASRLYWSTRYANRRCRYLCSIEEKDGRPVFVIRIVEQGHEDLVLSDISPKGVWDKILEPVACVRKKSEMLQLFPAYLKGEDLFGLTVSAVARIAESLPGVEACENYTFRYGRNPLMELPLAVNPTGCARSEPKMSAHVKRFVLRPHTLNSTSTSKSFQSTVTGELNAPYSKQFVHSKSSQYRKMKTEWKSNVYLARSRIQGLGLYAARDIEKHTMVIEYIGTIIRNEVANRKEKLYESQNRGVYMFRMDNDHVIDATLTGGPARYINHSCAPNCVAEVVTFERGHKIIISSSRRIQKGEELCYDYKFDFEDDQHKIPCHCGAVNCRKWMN

Turning to `Cn1cc(-n2cnc3c(NCc4nc5cc(Cl)c(Cl)cc5[nH]4)nc(N4CCOCC4)nc32)cn1`, the % of control in assay [1] amounted to 48.9%.

For `COCCN1CCC(c2cc(CN(C)C(=O)c3cccc(Oc4ccccc4)c3)ccn2)CC1`, the results for the % activity in assay [2] (at 1 µM) and in assay [2] (at 10 µM) were more than 95% and more than 90%, respectively. For `N#Cc1cccc(-c2c[nH]c3ncnc(N4CCOCC4)c23)c1`, the % of control in assay [3] and in [4] was 100% each time.

On to `CNC(=O)Nc1ccc(-c2nc(N3CC4CCC(C3)O4)c3cnn(C4CCC5(CC4)OCCO5)c3n2)cc1`, for which the % of inhibition in assay [5] was 5%; on SRSF protein kinase 1, 2%. With `Cc1cnc(Nc2ccc(F)cc2Cl)nc1-c1c[nH]c(C(=O)N[C@H](CO)c2cccc(Cl)c2)c1`, the % of inhibition in [6] was determined as 3%. The molecule `CNCCN1CCC(c2cc(CN(C)C(=O)c3cccc(Oc4ccccc4)c3)ccn2)CC1` returned a % activity in assay [7] of more than 90%.

`CN(C)C/C=C/C(=O)Nc1ccc(C(=O)N2CCCC(Nc3ncc(Cl)c(-c4c[nH]c5ccccc45)n3)C2)cc1` (stereo not drawn): the % of control in assay [8] came out at 93%. Molecule `COc1cc(Nc2nc(C)cc(-c3cnn4nc(OC)ccc34)n2)cc(C(F)(F)F)c1` showed a % of control in assay [9] of 85%. `CCC(=O)N1CCN(c2ccc(-n3c(=O)ccc4cnc5ccc(-c6cnc7ccccc7c6)cc5c43)cc2C(F)(F)F)CC1`: the % of control in assay [10] is 100%. As for `COc1cc(N(C)c2ccnc3ccc(C(F)(F)F)cc23)cc(OC)c1OC`, the % binding in assay [11] was determined as 68%.
